US6683077B2, “2-Amino-benzoxazinones for the treatment of viral infections” (G.D. Searle & Co., priority 1996, dated 2004)

test system: HCMV engineered virus RC256; test: microbe, parasite or virus in culture; assay type: cell-based, human cytomegalovirus; details: Human betaherpesvirus 5, Fibroblast, read-out: Antiviral Activity RC256, first value (EC50)

Row | Structure (SMILES) | EC50
1 | CCN(Cc1ccccc1)C(=O)[C@H](Cc1ccccc1)Nc1nc2ccc(CNC(=O)OC(C)(C)C)c(C)c2c(=O)o1 [Example 7l, 1,1-Dimethylethyl[[2-[[2-[ethyl(phenylmethyl)amino]-2-oxo-1S-(phenylmethyl)ethyl]amino]-5-methyl-4-oxo-4H-3,1-benzoxazin-6-yl]methyl]carbamate] | 13 µM
2 | Cc1c(CNC(=O)OCCN2CCOCC2)ccc2nc(N[C@@H](Cc3ccccc3)C(=O)N(C)Cc3ccccc3)oc(=O)c12 [Example 18h] | 11 µM
3 | Cc1c(CNC(=O)CN(C)C)cc(Br)c2nc(N[C@@H](Cc3ccccc3)C(=O)N(C)Cc3ccccc3)oc(=O)c12 [Example 15a, αS-[[8-Bromo-6-[[[2-(dimethylamino)acetyl]amino]methyl]-5-methyl-4-oxo-4H-3,1-benzoxazin-2-yl]amino]-N-methyl-N-(phenylmethyl)benzenepropanamide] | 21 µM
4 | COc1ccc(C[C@H](Nc2nc3ccc(CNC(=O)OC(C)(C)C)c(C)c3c(=O)o2)C(=O)N(C)Cc2ccccc2)cc1 [Example 7i, 1,1-Dimethylethyl[[2-[[1S-[(4-methoxyphenyl)methyl]-2-[methyl(phenylmethyl)amino]-2-oxoethyl]amino]-5-methyl-4-oxo-4H-3,1-benzoxazin-6-yl]methyl]carbamate] | 30 µM
5 | COc1ccc(C[C@H](Nc2nc3ccc(CNC(=O)CN4CCCC4)c(C)c3c(=O)o2)C(=O)N(C)Cc2ccccc2)cc1 [Example 9c, N-[[2-[[1S-[(4-Methoxyphenyl)methyl]-2-[methyl(phenylmethyl)amino]-2-oxoethyl]amino]-5-methyl-4-oxo-4H-3,1-benzoxazin-6-yl]methyl]pyrrolidine-1-acetamide] | 9 µM
6 | CCOC(=O)Nc1ccc2nc(N[C@@H](Cc3ccc(OC)cc3)C(=O)N(C)Cc3ccccc3)oc(=O)c2c1C [Example 11r, Ethyl[2-[[1S-[(4-methoxyphenyl)methyl]-2-[methyl(phenylmethyl)amino]-2-oxoethyl]amino]-5-methyl-4H-3,1-benzoxazin-6-yl]carbamate] | 12 µM
7 | Cc1c(NC(=O)OC(C)(C)C)ccc2nc(N[C@H](C)c3ccccc3)oc(=O)c12 [Example 6n, 6-[[(1,1-Dimethylethoxy)carbonyl]amino]-5-methyl-2-[[(1R)-phenylethyl]amino]-4H-3,1-benzoxazin-4-one] | 10 µM
8 | COc1ccc(C[C@H](Nc2nc3ccc(CNC(=O)CN4CCOCC4)c(C)c3c(=O)o2)C(=O)N(C)Cc2ccccc2)cc1 [Example 9n, N-[[2-[[1S-[(4-Methoxyphenyl)methyl]-2-[methyl(phenylmethyl)amino]-2-oxoethyl]amino]-5-methyl-4-oxo-4H-3,1-benzoxazin-6-yl]methyl]morpholine-4-acetamide] | 75 µM
9 | COC[C@H](Cc1ccccc1)Nc1nc2cccc(C)c2c(=O)o1 [Example 1p, 2-[[2-Methoxy-(1S)-(1-phenylmethyl)ethyl]amino]-5-methyl-4H-3,1-benzoxazin-4-one] | 38 µM
10 | COC(=O)[C@H](C)Nc1nc2ccc(NS(=O)(=O)c3ccccc3)c(C)c2c(=O)o1 [Example 13a] | 60 µM
11 | COC(=O)[C@H](Cc1ccccc1)Nc1nc2ccc(NC(=O)OC(C)(C)C)c(C)c2c(=O)o1 [Example 6a, N-[6-[[(1,1-Dimethylethoxy]carbonyl]amino]-5-methyl-4-oxo-4H-3,1-benzoxazin-2-yl]-L-phenylalanine, methyl ester] | 71 µM
12 | COc1ccc(C[C@H](Nc2nc3ccc(CNC(=O)C(C)(C)C)c(C)c3c(=O)o2)C(=O)N(C)Cc2ccccc2)cc1 [Example 9l, αS-[[6-[[(2,2-Dimethyl-1-oxopropyl)amino]methyl]-5-methyl-4-oxo-4H-3,1-benzoxazin-2-yl]amino]-4-methoxy-N-methyl-N-(phenylmethyl)benzenepropanamide] | 65 µM
13 | Cc1c(CNS(C)(=O)=O)cc(Br)c2nc(N[C@@H](Cc3ccccc3)C(=O)N(C)Cc3ccccc3)oc(=O)c12 [Example 15j, αS-[[8-Bromo-5-methyl-6-[[(methylsulfonyl)amino]methyl]-4-oxo-4H-3,1-benzoxazin-2-yl]amino]-N-methyl-N-(phenylmethyl)benzenepropanamide] | 13 µM
14 | COC(=O)[C@H](Cc1c[nH]c2ccccc12)Nc1nc2cccc(C)c2c(=O)o1 [Example 1m, N-(5-Methyl-4-oxo-4H-3,1-benzoxazin-2-yl)-L-tryptophan, methyl ester] | 56 µM
15 | CC(=O)NCc1ccc2nc(N[C@@H](Cc3ccccc3)C(=O)N(C)Cc3ccccc3)oc(=O)c2c1C [Example 9x, αS-[[6-[(Acetylamino)methyl]-5-methyl-4-oxo-4H-3,1-benzoxazin-2-yl]amino]-N-methyl-N-(phenylmethyl)benzenepropanamide] | 16 µM
16 | Cc1c(CNC(=O)CCc2ccccc2)ccc2nc(N[C@@H](Cc3ccccc3)C(=O)N(C)Cc3cccnc3)oc(=O)c12 [Example 9aa, N-Methyl-αS-[[5-methyl-4-oxo-6-[[(1-oxo-3-phenylpropyl)amino]methyl]-4H-3,1-benzoxazin-2-yl]amino]-N-(3-pyridinylmethyl)benzenepropanamide] | 33 µM
17 | COc1ccc(C[C@H](Nc2nc3ccc(CNC(=O)OCCN(C)C)c(C)c3c(=O)o2)C(=O)N(C)Cc2ccccc2)cc1 [Example 18c, 2-(Dimethylamino)ethyl[[2-[[1S-[(4-methoxyphenyl)methyl]-2-[methyl(phenylmethyl)amino]-2-oxoethyl]amino]-5-methyl-4-oxo-3,1-benzoxazin-6-yl]methyl]carbamate] | 15 µM
18 | COc1ccc(C[C@H](Nc2nc3ccc(CNC(=O)OCc4ccccc4)c(C)c3c(=O)o2)C(=O)N(C)Cc2ccccc2)cc1 [Example 9i, Phenylmethyl[[2-[[1S-[(4-methoxyphenyl)methyl]-2-[methyl(phenylmethyl)amino]-2-oxcethyl]amino]-5-methyl-4-oxo-4H-3,1-benzoxazin-6-yl]methyl]carbamate] | 14 µM
19 | COc1ccc(C[C@H](Nc2nc3ccc(CNC(=O)NC(C)(C)C)c(C)c3c(=O)o2)C(=O)N(C)Cc2ccccc2)cc1 [Example 12d, αS-[[6-[[[[(1,1-Dimethylethyl)amino]carbonyl]amino]methyl]-5-methyl-4-oxo-4H-3,1-benzoxazin-2-yl]amino]-4-methoxy-N-methyl-N-(phenylmethyl)benzenepropanamide] | 14 µM
20 | COC(=O)[C@H](Cc1ccc(OC)cc1)Nc1nc2cccc(C)c2c(=O)o1 [Example 1r, N-(5-Methyl-4-oxo-4H-3,1-benzoxazin-2-yl)-O-methyl-L-tyrosine, methyl ester] | 59 µM
21 | CCN(Cc1ccccc1)C(=O)[C@H](Cc1ccccc1)Nc1nc2ccc(N)c(C)c2c(=O)o1 [Example 8f, αS-[(6-Amino-5-methyl-4-oxo-4H-3,1-benzoxazin-2-yl)amino]-N-ethyl-N-(phenylmethyl)benzenepropanamide] | 17 µM
22 | COc1ccc(C[C@H](Nc2nc3ccc(CNC(=O)OCCN4CCCCC4)c(C)c3c(=O)o2)C(=O)N(C)Cc2ccccc2)cc1 [Example 18a, 2-(1-Piperidinyl)ethyl[[2-[[1S-[(4-methoxyphenyl)methyl]-2-[methyl(phenylmethyl)amino]-2-oxoethyl]amino]-5-methyl-4-oxo-3,1-benzoxazin-6-yl]methyl]carbamate] | 5 µM
